Test results as given in PubChem BioAssay AID1963964 (Molecular Pharmacology Branch, DTP, NCI, 2024).

Tested on: 997726-040-R-J2-PDC tumor spheroids, viability
Assay: Anticancer human tumor 997726-040-R-J2-PDC patient-derived squamous cell lung carcinoma cell line growth inhibition [PI3K]
Settings: spheroids with HUVEC and MSC; for IC50: curve of first compound; for viability, T/C: stronger effect = lower value
Procedure, shortened: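 High-throughput combination screen: PI3K inhibitors crossed with targeted small molecules on complex spheroids of tumor cells, HUVEC and MSCs at 37 degrees C, 5% CO2. Top concentration was at or near clinical Cmax (otherwise 10 microM), with half-log decrements.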

[1] = second compound 0.0316 µM, first compound 0.000316 µM
[2] = second compound 0.0316 µM, first compound 0.001 µM
[3] = second compound 0.0316 µM, first compound 0.00316 µM
[4] = second compound 0.0316 µM, first compound 0.01 µM
[5] = second compound 0.0316 µM, first compound 0.0316 µM
[6] = second compound 0.0316 µM, first compound 0.1 µM
[7] = second compound 0.1 µM, first compound 0.000316 µM
[8] = second compound 0.1 µM, first compound 0.001 µM
[9] = second compound 0.1 µM, first compound 0.00316 µM
[10] = second compound 0.1 µM, first compound 0.01 µM
[11] = second compound 0.1 µM, first compound 0.0316 µM
[12] = second compound 0.1 µM, first compound 0.1 µM
[13] = second compound 0.316 µM, first compound 0.000316 µM
[14] = second compound 0.316 µM, first compound 0.001 µM
[15] = second compound 0.316 µM, first compound 0.00316 µM
[16] = second compound 0.316 µM, first compound 0.01 µM
[17] = second compound 0.316 µM, first compound 0.0316 µM
[18] = second compound 0.316 µM, first compound 0.1 µM
[19] = second compound 1 µM, first compound 0.000316 µM
[20] = second compound 1 µM, first compound 0.001 µM
[21] = second compound 1 µM, first compound 0.00316 µM
[22] = second compound 1 µM, first compound 0.01 µM
[23] = second compound 1 µM, first compound 0.0316 µM
[24] = second compound 1 µM, first compound 0.1 µM
[25] = second compound 0.00316 µM, first compound 0.000316 µM
[26] = second compound 0.00316 µM, first compound 0.001 µM
[27] = second compound 0.00316 µM, first compound 0.00316 µM
[28] = second compound 0.00316 µM, first compound 0.01 µM
[29] = second compound 0.00316 µM, first compound 0.0316 µM
[30] = second compound 0.00316 µM, first compound 0.1 µM
[31] = second compound 0.01 µM, first compound 0.000316 µM
[32] = second compound 0.01 µM, first compound 0.001 µM
[33] = second compound 0.01 µM, first compound 0.00316 µM
[34] = second compound 0.01 µM, first compound 0.01 µM
[35] = second compound 0.01 µM, first compound 0.0316 µM
[36] = second compound 0.01 µM, first compound 0.1 µM
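Also: spheroids exposed to compounds for seven days before readout.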

Work on `CC(C)n1nc(-c2ccc3oc(N)nc3c2)c2c(N)ncnc21` + Cc1nc(NC(=O)N2CCCC2C(N)=O)sc1-c1ccnc(C(C)(C)C(F)(F)F)c1 yielded an IC50 (second compound 0.0316 µM) of 17.1 nM, an IC50 (second compound 0.1 µM) of 10.7 nM and an IC50 (second compound 0.316 µM) of 3.53 nM. For the same molecule, the IC50 (second compound 1 µM) was less than 0.316 nM, the IC50 (second compound 3.16 µM) was less than 0.316 nM and the IC50 (second compound 10 µM) was less than 0.316 nM. The viability, T/C [1] was 80.4%, the viability, T/C [2] was 80% and the viability, T/C [3] was 66.5%. It also gave a viability, T/C [4] of 62%, a viability, T/C [5] of 38.8% and a viability, T/C [6] of 7.7%. For the same molecule, the viability, T/C [7] was 84.9%, the viability, T/C [8] was 71.1% and the viability, T/C [9] was 64.4%. The viability, T/C [10] was 52.8%, the viability, T/C [11] was 33.6% and the viability, T/C [12] was 7.57%. The viability, T/C [13] was 62%, the viability, T/C [14] was 61.8% and the viability, T/C [15] was 51.1%. The viability, T/C [16] was 36.7%, the viability, T/C [17] was 28.6% and the viability, T/C [18] was 6.37%. It also gave a viability, T/C [19] of 43.7%, a viability, T/C [20] of 38.9% and a viability, T/C [21] of 38.3%. For the same molecule, the viability, T/C [22] was 32.7%, the viability, T/C [23] was 21.3% and the viability, T/C [24] was 3.77%. It also gave a viability, T/C (second compound 3.16 µM, first compound 0.000316 µM) of 32.4%, a viability, T/C (second compound 3.16 µM, first compound 0.001 µM) of 31.8% and a viability, T/C (second compound 3.16 µM, first compound 0.00316 µM) of 27.9%. It also gave a viability, T/C (second compound 3.16 µM, first compound 0.01 µM) of 24.5%, a viability, T/C (second compound 3.16 µM, first compound 0.0316 µM) of 9.73% and a viability, T/C (second compound 3.16 µM, first compound 0.1 µM) of 2.15%. It also gave a viability, T/C (second compound 10 µM, first compound 0.000316 µM) of 21%, a viability, T/C (second compound 10 µM, first compound 0.001 µM) of 11.3% and a viability, T/C (second compound 10 µM, first compound 0.00316 µM) of 10.4%. The viability, T/C (second compound 10 µM, first compound 0.01 µM) was 8.32%, the viability, T/C (second compound 10 µM, first compound 0.0316 µM) was 4.53% and the viability, T/C (second compound 10 µM, first compound 0.1 µM) was 1.59%.
Molecule `CC(C)n1nc(-c2ccc3oc(N)nc3c2)c2c(N)ncnc21` + CC(Nc1ccc2c(c1)OCCn1cc(N3C(=O)OCC3C(F)F)nc1-2)C(N)=O has an IC50 (second compound 0.00316 µM) of 17.4 nM, an IC50 (second compound 0.01 µM) of 16.5 nM and an IC50 (second compound 0.0316 µM) of 3.27 nM. For the same molecule, the IC50 (second compound 0.1 µM) was less than 0.316 nM, the IC50 (second compound 0.316 µM) was less than 0.316 nM and the IC50 (second compound 1 µM) was less than 0.316 nM. It also gave a viability, T/C [25] of 79%, a viability, T/C [26] of 88.2% and a viability, T/C [27] of 73.5%. It also gave a viability, T/C [28] of 59.8%, a viability, T/C [29] of 38.9% and a viability, T/C [30] of 7.14%. It also gave a viability, T/C [31] of 74.8%, a viability, T/C [32] of 68.5% and a viability, T/C [33] of 71.3%. The viability, T/C [34] was 59.1%, the viability, T/C [35] was 37.4% and the viability, T/C [36] was 6.85%. The viability, T/C [1] was 54.6%, the viability, T/C [2] was 61.3% and the viability, T/C [3] was 48.7%. For the same molecule, the viability, T/C [4] was 38.6%, the viability, T/C [5] was 26.6% and the viability, T/C [6] was 6.47%. The viability, T/C [7] was 44.2%, the viability, T/C [8] was 39.5% and the viability, T/C [9] was 42.5%. For the same molecule, the viability, T/C [10] was 33%, the viability, T/C [11] was 20.9% and the viability, T/C [12] was 4.52%. The viability, T/C [13] was 32.5%, the viability, T/C [14] was 33.9% and the viability, T/C [15] was 27.9%. The viability, T/C [16] was 24.9%, the viability, T/C [17] was 13.5% and the viability, T/C [18] was 3.29%. It also gave a viability, T/C [19] of 29.1%, a viability, T/C [20] of 26.9% and a viability, T/C [21] of 21.4%. For the same molecule, the viability, T/C [22] was 20.6%, the viability, T/C [23] was 9.52% and the viability, T/C [24] was 2.78%.
`CC(=O)c1c(C)c2cnc(Nc3ccc(N4CCNCC4)cn3)nc2n(C2CCCC2)c1=O` + COc1c(OCCCN2CCOCC2)ccc2c3n(c(=NC(=O)c4cnc(N)nc4)nc12)CCN3 gave an IC50 (second compound 0.00316 µM) greater than 100 nM, an IC50 (second compound 0.01 µM) of 15.6 nM and an IC50 (second compound 0.0316 µM) of less than 0.316 nM. For the same molecule, the IC50 (second compound 0.1 µM) was less than 0.316 nM, the IC50 (second compound 0.316 µM) was less than 0.316 nM and the IC50 (second compound 1 µM) was less than 0.316 nM. For the same molecule, the viability, T/C [25] was 73%, the viability, T/C [26] was 77.6% and the viability, T/C [27] was 69.8%. The viability, T/C [28] was 75%, the viability, T/C [29] was 60.1% and the viability, T/C [30] was 52.4%. For the same molecule, the viability, T/C [31] was 62.1%, the viability, T/C [32] was 60.9% and the viability, T/C [33] was 53.8%. The viability, T/C [34] was 55.8%, the viability, T/C [35] was 44.4% and the viability, T/C [36] was 39.2%. The viability, T/C [1] was 32.2%, the viability, T/C [2] was 42.1% and the viability, T/C [3] was 35.3%. For the same molecule, the viability, T/C [4] was 34.1%, the viability, T/C [5] was 28.1% and the viability, T/C [6] was 25.7%. The viability, T/C [7] was 20.6%, the viability, T/C [8] was 23.3% and the viability, T/C [9] was 23.9%. It also gave a viability, T/C [10] of 21%, a viability, T/C [11] of 18.7% and a viability, T/C [12] of 17.1%. For the same molecule, the viability, T/C [13] was 5.23%, the viability, T/C [14] was 5.65% and the viability, T/C [15] was 6.03%. The viability, T/C [16] was 5.28%, the viability, T/C [17] was 5.14% and the viability, T/C [18] was 3.76%. For the same molecule, the viability, T/C [19] was 1.5%, the viability, T/C [20] was 1.26% and the viability, T/C [21] was 1.01%. The viability, T/C [22] was 1.2%, the viability, T/C [23] was 1.19% and the viability, T/C [24] was 1.06%.
